Test results as given in PubChem BioAssay AID492957 (The Scripps Research Institute Molecular Screening Center, 2010).
Active and inactive are the calls of the source.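 How the source made its calls: active means IC50 at or below 10 µM; inactive means IC50 above 10 µM.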

Tested on: E. coli V66 + T4 gene 2 mutant phage, OD growth
Assay: E. coli RecBCD inhibitors, dose response, counter-screen for AddAB inhibitor project, absorbance, V66 E. coli, mutant T4 phage (AID 492957)

O=C(NCc1cccnc1)c1ccc([N+](=O)[O-])o1
IC50: 86.4 µM (inactive)
